Measured values: patent publication US20020137929A1, “1 - (3-heterocyclylphenyl) isothiourea, -isourea, -guanidine and -amidine herbicidal agents” (Intellectual Property Department, BASF Aktiengesellschaft, priority 1998, published 2002)

Columns and labels:
[1] = test system: IPOHE (Morningglory, Ivyleaf); assay: Preemergence herbicidal evaluation; assay type: in vivo, Ipomoea hederacea; conditions: rated 4-5 weeks after treatment
Outline: (§1)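 Visual 0-9 rating vs control (stand, vigor, malformation, size, chlorosis, overall appearance), scored 4-5 wk after spraying. Seeded soil cups were treated preemergence with compound in aqueous acetone, ~0.0156-0.500 kg/ha equivalent.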

SETVI (Foxtail, Green) [2] = assay: Preemergence herbicidal evaluation; assay type: in vivo, Setaria viridis; conditions: rated 4-5 weeks after treatment
Outline: as §1

ABUTH (Velvetleaf) = assay: Preemergence herbicidal evaluation; assay type: in vivo, Abutilon theophrasti; conditions: rated 4-5 weeks after treatment
Outline: as §1

[3] = test system: ECHORC (Watergrass (Calif.)); assay: Postemergence weed control under flooded paddy conditions; assay type: in vivo, Echinochloa oryzoides; conditions: postemergence weeds, 3-4 weeks after treatment
Outline: (§2)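 Herbicidal effect is judged by eye on a 0–9 scale versus control, 3–4 weeks after dosing. Dosing is into flood water kept 1.5–3 cm over the soil, at about 0.0313–0.500 kg/ha in aqueous/acetone 50/50 v/v, on 3–5 cm weeds and 1.5–2.5-leaf rice seedlings.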

SETVI (Foxtail, Green) [4] = assay: Postemergence herbicidal evaluation; assay type: in vivo, Setaria viridis; conditions: postemergence
Outline: (§3)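 Herbicidal effect was judged by eye on a 0–9 scale covering stand, vigor, deformity, size and chlorosis, compared with controls, four to five weeks after seedlings about two weeks old were sprayed (40 psi, ~0.0156–0.500 kg/ha).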

ZEAMX (Corn, Field) = assay: Preemergence herbicidal evaluation; assay type: in vivo, Zea mays; conditions: rated 4-5 weeks after treatment
Outline: as §1

ECHCG (Barnyardgrass) = assay: Preemergence herbicidal evaluation; assay type: in vivo, Echinochloa crus-galli; conditions: rated 4-5 weeks after treatment
Outline: as §1

MOOVA (Monochoria) = assay: Preemergence weed control under flooded paddy conditions; assay type: in vivo, Monochoria vaginalis; conditions: rated 3-4 weeks after treatment
Outline: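 Ratings on a 0-9 visual scale cover stand, vigor, malformation, size, chlorosis and overall appearance relative to a control, taken three to four weeks post-treatment. Application was into flood water over freshly sown silt loam at roughly 0.0313 to 0.500 kg/ha.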

[5] = test system: TRZAWR (Wheat, Winter, cv Riband); assay: Postemergence herbicidal evaluation; assay type: in vivo, Triticum aestivum; conditions: postemergence
Outline: as §3

[6] = test system: ECHORC (Watergrass (Calif.)); assay: Preemergence weed control under flooded paddy conditions; assay type: in vivo, Echinochloa oryzoides; conditions: rated 3-4 weeks after treatment
Outline: (§4)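 Visual injury scored 0-9 against control three to four weeks post-treatment, greenhouse-grown. Application: acetone/water (50/50) solutions dosed directly into flood water (1.5-3 cm over silt loam, planted top 0.5 cm), roughly 0.0313 to 0.500 kg/ha active ingredient.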

[7] = test system: IPOHE (Morningglory, Ivyleaf); assay: Postemergence herbicidal evaluation; assay type: in vivo, Ipomoea hederacea; conditions: postemergence
Outline: as §3

[8] = test system: SAGPY (Arrowhead (Pygmaea)); assay: Postemergence weed control under flooded paddy conditions; assay type: in vivo, Sagittaria pygmaea; conditions: postemergence weeds, 3-4 weeks after treatment
Outline: as §2

CYPIR (Rice Flatsedge) = assay: Preemergence weed control under flooded paddy conditions; assay type: in vivo, Cyperus iria; conditions: rated 3-4 weeks after treatment
Outline: as §4

GALAP (Galium) = assay: Postemergence herbicidal evaluation; assay type: in vivo, Galium aparine; conditions: postemergence
Outline: as §3

CCOC(=O)CN1C(=O)C(F)SC1=Nc1cc(-n2c(=O)cc(C(F)(F)F)n(C)c2=O)c(F)cc1Cl (stereo not shown) [Compound 11, Ethyl 2-{{2-chloro-5-[3,6-dihydro-3-methyl-2,6-dioxo-4-(trifluoromethyl)-1(2H)-pyrimidinyl]-4-fluorophenyl}imino}-5-fluoro-4-oxo-3-thiazolidineacetate]
8.5: ABUTH preemergence herbicidal rating (ABUTH (Velvetleaf); rate 0.0313 kg/ha) | ABUTH preemergence herbicidal rating (ABUTH (Velvetleaf); rate 0.0625 kg/ha)
3.5: ZEAMX preemergence herbicidal rating (ZEAMX (Corn, Field); rate 0.0625 kg/ha) | ECHCG preemergence herbicidal rating (ECHCG (Barnyardgrass); rate 0.1250 kg/ha)
5.5: ZEAMX preemergence herbicidal rating (ZEAMX (Corn, Field); rate 0.2500 kg/ha) | TRZAWR herbicidal rating ([5]; rate 0.0625 kg/ha)
5.0: GALAP herbicidal rating (GALAP (Galium); rate 0.0313 kg/ha)
7.5: SETVI preemergence herbicidal rating (SETVI (Foxtail, Green) [2]; rate 0.1250 kg/ha) | ABUTH preemergence herbicidal rating (ABUTH (Velvetleaf); rate 0.0156 kg/ha)
6.0: SETVI herbicidal rating (SETVI (Foxtail, Green) [4]; rate 0.0625 kg/ha) | TRZAWR herbicidal rating ([5]; rate 0.1250 kg/ha) | GALAP herbicidal rating (GALAP (Galium); rate 0.0625 kg/ha) | GALAP herbicidal rating (GALAP (Galium); rate 0.1250 kg/ha)
8.0: IPOHE preemergence herbicidal rating ([1]; rate 0.0313 kg/ha) | IPOHE preemergence herbicidal rating ([1]; rate 0.0625 kg/ha)
1.0: SETVI preemergence herbicidal rating (SETVI (Foxtail, Green) [2]; rate 0.0313 kg/ha) | Herbicidal rating ECHORC ([3]; rate 0.0313 kg/ha) | Herbicidal rating MOOVA (MOOVA (Monochoria); 0.0625 kg/ha) | Herbicidal rating ECHORC ([6]; 0.0313 kg/ha)
4.5: ZEAMX preemergence herbicidal rating (ZEAMX (Corn, Field); rate 0.1250 kg/ha) | TRZAWR herbicidal rating ([5]; rate 0.0156 kg/ha) | TRZAWR herbicidal rating ([5]; rate 0.0313 kg/ha)
3.0: Herbicidal rating ECHORC ([3]; rate 0.2500 kg/ha) | Herbicidal rating ECHORC ([6]; 0.2500 kg/ha) | GALAP herbicidal rating (GALAP (Galium); rate 0.0156 kg/ha)
0.5: ZEAMX preemergence herbicidal rating (ZEAMX (Corn, Field); rate 0.0313 kg/ha)
2.0: IPOHE preemergence herbicidal rating ([1]; rate 0.0156 kg/ha) | Herbicidal rating ECHORC ([3]; rate 0.0625 kg/ha) | Herbicidal rating ECHORC ([3]; rate 0.1250 kg/ha) | Herbicidal rating ECHORC ([6]; 0.0625 kg/ha) | Herbicidal rating ECHORC ([6]; 0.1250 kg/ha)
4.0: Herbicidal rating MOOVA (MOOVA (Monochoria); 0.1250 kg/ha)
7.0: SETVI preemergence herbicidal rating (SETVI (Foxtail, Green) [2]; rate 0.0625 kg/ha) | ECHCG preemergence herbicidal rating (ECHCG (Barnyardgrass); rate 0.2500 kg/ha) | Herbicidal rating MOOVA (MOOVA (Monochoria); 0.2500 kg/ha)
0.0: SETVI preemergence herbicidal rating (SETVI (Foxtail, Green) [2]; rate 0.0156 kg/ha) | SETVI herbicidal rating (SETVI (Foxtail, Green) [4]; rate 0.0156 kg/ha) | SETVI herbicidal rating (SETVI (Foxtail, Green) [4]; rate 0.0313 kg/ha) | ZEAMX preemergence herbicidal rating (ZEAMX (Corn, Field); rate 0.0156 kg/ha) | ECHCG preemergence herbicidal rating (ECHCG (Barnyardgrass); rate 0.0156 kg/ha) | ECHCG preemergence herbicidal rating (ECHCG (Barnyardgrass); rate 0.0313 kg/ha) | ECHCG preemergence herbicidal rating (ECHCG (Barnyardgrass); rate 0.0625 kg/ha) | Herbicidal rating MOOVA (MOOVA (Monochoria); 0.0313 kg/ha) | Herbicidal rating SAGPY ([8]; rate 0.0313 kg/ha) | Herbicidal rating SAGPY ([8]; rate 0.0625 kg/ha) | Herbicidal rating SAGPY ([8]; rate 0.1250 kg/ha) | Herbicidal rating SAGPY ([8]; rate 0.2500 kg/ha) | Herbicidal rating CYPIR (CYPIR (Rice Flatsedge); 0.0313 kg/ha) | Herbicidal rating CYPIR (CYPIR (Rice Flatsedge); 0.0625 kg/ha) | Herbicidal rating CYPIR (CYPIR (Rice Flatsedge); 0.1250 kg/ha) | Herbicidal rating CYPIR (CYPIR (Rice Flatsedge); 0.2500 kg/ha)
9.0: IPOHE preemergence herbicidal rating ([1]; rate 0.1250 kg/ha) | IPOHE preemergence herbicidal rating ([1]; rate 0.2500 kg/ha) | SETVI preemergence herbicidal rating (SETVI (Foxtail, Green) [2]; rate 0.2500 kg/ha) | ABUTH preemergence herbicidal rating (ABUTH (Velvetleaf); rate 0.1250 kg/ha) | ABUTH preemergence herbicidal rating (ABUTH (Velvetleaf); rate 0.2500 kg/ha) | SETVI herbicidal rating (SETVI (Foxtail, Green) [4]; rate 0.1250 kg/ha) | IPOHE herbicidal rating ([7]; rate 0.0156 kg/ha) | IPOHE herbicidal rating ([7]; rate 0.0313 kg/ha) | IPOHE herbicidal rating ([7]; rate 0.0625 kg/ha) | IPOHE herbicidal rating ([7]; rate 0.1250 kg/ha)
